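Step 1: Grow cells in 96-well plates. Step 2: Expose to compound for 48 hours at 5 concentrations. Step 3: Interpolate endpoints linearly; if unreached, use highest concentration. At the TGI there is no net growth.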
tested on: NCI-H226 lung; assay: inhibition of tumour cell growth, NCI panel, 48 h

Going from `Cc1cccc(/C=N/NC(=S)NCCc2ccccn2)n1` to `COc1cccc(CCn2c(N)c(-c3ccccc3)c3ccc([N+](=O)[O-])cc3c2=O)c1`, the TGI falls from 66.3 µM to 11.7 µM (5.7-fold).

Going from `CC(=O)c1csc2c1C(=O)c1scc(C(C)=O)c1C2=O` to `CC1(C)c2ccccc2C(=O)C12CCC(=O)CC2`, the TGI rises from 4.14 µM to over 100 µM.

tested on: NCI-H23 lung; assay: inhibition of tumour cell growth, NCI panel, 48 h

Going from `COc1ccc2c(c1)CCc1c-2[nH]c2ccc(OC)cc12` to `COc1cccc(CCn2c(N)c(-c3ccccc3)c3ccc([N+](=O)[O-])cc3c2=O)c1`, the TGI falls from over 100 µM to 8.47 µM.

`C/C(=N\Nc1cc(CN2CCCC2)c(-c2ccc(Cl)cc2)nn1)C(=O)O` and `O=C(O)c1ccc(NNc2cc(=O)[nH]c(=O)[nH]2)cc1` cannot be ordered by TGI: over 100 µM for the first, over 100 µM for the second.

`Cc1cccc(/C=N/NC(=S)NCCc2ccccn2)n1` and `CC1(C)c2ccccc2C(=O)C12CCC(=O)CC2` cannot be ordered by TGI: over 100 µM for the first, over 100 µM for the second.

`CC(=O)c1csc2c1C(=O)c1scc(C(C)=O)c1C2=O` showed a TGI of 2.92 µM.

tested on: NCI-H460 lung; assay: inhibition of tumour cell growth, NCI panel, 48 h

Going from `COc1ccc2c(c1)CCc1c-2[nH]c2ccc(OC)cc12` to `COc1cccc(CCn2c(N)c(-c3ccccc3)c3ccc([N+](=O)[O-])cc3c2=O)c1`, the TGI falls from over 100 µM to 30 µM.

`C/C(=N\Nc1cc(CN2CCCC2)c(-c2ccc(Cl)cc2)nn1)C(=O)O` and `O=C(O)c1ccc(NNc2cc(=O)[nH]c(=O)[nH]2)cc1` cannot be ordered by TGI: over 100 µM for the first, over 100 µM for the second.

`Cc1cccc(/C=N/NC(=S)NCCc2ccccn2)n1` and `CC1(C)c2ccccc2C(=O)C12CCC(=O)CC2` cannot be ordered by TGI: over 100 µM for the first, over 100 µM for the second.

Work on `CC(=O)c1csc2c1C(=O)c1scc(C(C)=O)c1C2=O` yielded a TGI of 2.35 µM.

tested on: NCI-H522 lung; assay: inhibition of tumour cell growth, NCI panel, 48 h

First: COc1ccc2c(c1)CCc1c-2[nH]c2ccc(OC)cc12
Second: COc1cccc(CCn2c(N)c(-c3ccccc3)c3ccc([N+](=O)[O-])cc3c2=O)c1
The TGI of the first is higher: over 100 µM for the first, 9.37 µM for the second.

`C/C(=N\Nc1cc(CN2CCCC2)c(-c2ccc(Cl)cc2)nn1)C(=O)O` and `Cc1cccc(/C=N/NC(=S)NCCc2ccccn2)n1` cannot be ordered by TGI: over 100 µM for the first, over 100 µM for the second.

Going from `CC(=O)c1csc2c1C(=O)c1scc(C(C)=O)c1C2=O` to `CC1(C)c2ccccc2C(=O)C12CCC(=O)CC2`, the TGI rises from 1.75 µM to over 100 µM.

tested on: NCI/ADR-RES ovarian; assay: inhibition of tumour cell growth, NCI panel, 48 h

Compared with `COc1ccc2c(c1)CCc1c-2[nH]c2ccc(OC)cc12`, `COc1cccc(CCn2c(N)c(-c3ccccc3)c3ccc([N+](=O)[O-])cc3c2=O)c1` is lower in TGI: over 100 µM for the first, 5.21 µM for the second.

`C/C(=N\Nc1cc(CN2CCCC2)c(-c2ccc(Cl)cc2)nn1)C(=O)O` and `O=C(O)c1ccc(NNc2cc(=O)[nH]c(=O)[nH]2)cc1` cannot be ordered by TGI: over 100 µM for the first, over 100 µM for the second.

`Cc1cccc(/C=N/NC(=S)NCCc2ccccn2)n1` and `CC1(C)c2ccccc2C(=O)C12CCC(=O)CC2` cannot be ordered by TGI: over 73.7 µM for the first, over 100 µM for the second.

With `CC(=O)c1csc2c1C(=O)c1scc(C(C)=O)c1C2=O` the TGI was 3.9 µM.

tested on: OVCAR-3 ovarian; assay: inhibition of tumour cell growth, NCI panel, 48 h

Going from `COc1ccc2c(c1)CCc1c-2[nH]c2ccc(OC)cc12` to `COc1cccc(CCn2c(N)c(-c3ccccc3)c3ccc([N+](=O)[O-])cc3c2=O)c1`, the TGI falls from over 100 µM to 6.51 µM.

`C/C(=N\Nc1cc(CN2CCCC2)c(-c2ccc(Cl)cc2)nn1)C(=O)O` and `O=C(O)c1ccc(NNc2cc(=O)[nH]c(=O)[nH]2)cc1` cannot be ordered by TGI: over 100 µM for the first, over 100 µM for the second.

Going from `Cc1cccc(/C=N/NC(=S)NCCc2ccccn2)n1` to `CC(=O)c1csc2c1C(=O)c1scc(C(C)=O)c1C2=O`, the TGI falls from over 100 µM to 0.646 µM.

tested on: OVCAR-4 ovarian; assay: inhibition of tumour cell growth, NCI panel, 48 h

`COc1ccc2c(c1)CCc1c-2[nH]c2ccc(OC)cc12` and `O=C(O)c1ccc(NNc2cc(=O)[nH]c(=O)[nH]2)cc1` cannot be ordered by TGI: over 100 µM for the first, over 100 µM for the second.

`C/C(=N\Nc1cc(CN2CCCC2)c(-c2ccc(Cl)cc2)nn1)C(=O)O` and `Cc1cccc(/C=N/NC(=S)NCCc2ccccn2)n1` cannot be ordered by TGI: over 100 µM for the first, over 100 µM for the second.

Compared with `CC(=O)c1csc2c1C(=O)c1scc(C(C)=O)c1C2=O`, `CC1(C)c2ccccc2C(=O)C12CCC(=O)CC2` is higher in TGI: 1.65 µM for the first, over 100 µM for the second.

tested on: OVCAR-5 ovarian; assay: inhibition of tumour cell growth, NCI panel, 48 h

First: COc1ccc2c(c1)CCc1c-2[nH]c2ccc(OC)cc12
Second: COc1cccc(CCn2c(N)c(-c3ccccc3)c3ccc([N+](=O)[O-])cc3c2=O)c1
The TGI of the first is higher: over 100 µM for the first, 46.9 µM for the second.

`C/C(=N\Nc1cc(CN2CCCC2)c(-c2ccc(Cl)cc2)nn1)C(=O)O` and `O=C(O)c1ccc(NNc2cc(=O)[nH]c(=O)[nH]2)cc1` cannot be ordered by TGI: over 100 µM for the first, over 100 µM for the second.

`Cc1cccc(/C=N/NC(=S)NCCc2ccccn2)n1` and `CC1(C)c2ccccc2C(=O)C12CCC(=O)CC2` cannot be ordered by TGI: over 100 µM for the first, over 100 µM for the second.

`CC(=O)c1csc2c1C(=O)c1scc(C(C)=O)c1C2=O` was tested, and the TGI was 3.45 µM.

tested on: OVCAR-8 ovarian; assay: inhibition of tumour cell growth, NCI panel, 48 h

First: COc1ccc2c(c1)CCc1c-2[nH]c2ccc(OC)cc12
Second: COc1cccc(CCn2c(N)c(-c3ccccc3)c3ccc([N+](=O)[O-])cc3c2=O)c1
The TGI of the first is higher: over 100 µM for the first, 4.45 µM for the second.

`C/C(=N\Nc1cc(CN2CCCC2)c(-c2ccc(Cl)cc2)nn1)C(=O)O` and `O=C(O)c1ccc(NNc2cc(=O)[nH]c(=O)[nH]2)cc1` cannot be ordered by TGI: over 100 µM for the first, over 100 µM for the second.

`Cc1cccc(/C=N/NC(=S)NCCc2ccccn2)n1` and `CC1(C)c2ccccc2C(=O)C12CCC(=O)CC2` cannot be ordered by TGI: over 100 µM for the first, over 100 µM for the second.

Molecule `CC(=O)c1csc2c1C(=O)c1scc(C(C)=O)c1C2=O` has a TGI of 3.09 µM.

tested on: PC-3 prostate; assay: inhibition of tumour cell growth, NCI panel, 48 h

`COc1ccc2c(c1)CCc1c-2[nH]c2ccc(OC)cc12` and `COc1cccc(CCn2c(N)c(-c3ccccc3)c3ccc([N+](=O)[O-])cc3c2=O)c1` cannot be ordered by TGI: over 100 µM for the first, over 79 µM for the second.

Going from `C/C(=N\Nc1cc(CN2CCCC2)c(-c2ccc(Cl)cc2)nn1)C(=O)O` to `O=C(O)c1ccc(NNc2cc(=O)[nH]c(=O)[nH]2)cc1`, the TGI falls from over 100 µM to 83.7 µM.

`Cc1cccc(/C=N/NC(=S)NCCc2ccccn2)n1` and `CC1(C)c2ccccc2C(=O)C12CCC(=O)CC2` cannot be ordered by TGI: over 100 µM for the first, over 100 µM for the second.

Molecule `CC(=O)c1csc2c1C(=O)c1scc(C(C)=O)c1C2=O` has a TGI of 7.49 µM.

tested on: RPMI-8226 leukemia; assay: inhibition of tumour cell growth, NCI panel, 48 h

Compared with `COc1ccc2c(c1)CCc1c-2[nH]c2ccc(OC)cc12`, `COc1cccc(CCn2c(N)c(-c3ccccc3)c3ccc([N+](=O)[O-])cc3c2=O)c1` is lower in TGI: over 100 µM for the first, 5 µM for the second.

`C/C(=N\Nc1cc(CN2CCCC2)c(-c2ccc(Cl)cc2)nn1)C(=O)O` and `O=C(O)c1ccc(NNc2cc(=O)[nH]c(=O)[nH]2)cc1` cannot be ordered by TGI: over 100 µM for the first, over 100 µM for the second.

Compared with `Cc1cccc(/C=N/NC(=S)NCCc2ccccn2)n1`, `CC(=O)c1csc2c1C(=O)c1scc(C(C)=O)c1C2=O` is lower in TGI: over 93 µM for the first, 3.14 µM for the second.

tested on: RXF 393 renal; assay: inhibition of tumour cell growth, NCI panel, 48 h

`C/C(=N\Nc1cc(CN2CCCC2)c(-c2ccc(Cl)cc2)nn1)C(=O)O` and `O=C(O)c1ccc(NNc2cc(=O)[nH]c(=O)[nH]2)cc1` cannot be ordered by TGI: over 100 µM for the first, over 100 µM for the second.

Compared with `CC(=O)c1csc2c1C(=O)c1scc(C(C)=O)c1C2=O`, `CC1(C)c2ccccc2C(=O)C12CCC(=O)CC2` is 25-fold higher in TGI: 3.9 µM for the first, 96 µM for the second.

tested on: SF-268 CNS; assay: inhibition of tumour cell growth, NCI panel, 48 h

Going from `COc1ccc2c(c1)CCc1c-2[nH]c2ccc(OC)cc12` to `COc1cccc(CCn2c(N)c(-c3ccccc3)c3ccc([N+](=O)[O-])cc3c2=O)c1`, the TGI falls from over 100 µM to 53.7 µM.

`C/C(=N\Nc1cc(CN2CCCC2)c(-c2ccc(Cl)cc2)nn1)C(=O)O` and `O=C(O)c1ccc(NNc2cc(=O)[nH]c(=O)[nH]2)cc1` cannot be ordered by TGI: over 100 µM for the first, over 100 µM for the second.

`Cc1cccc(/C=N/NC(=S)NCCc2ccccn2)n1` and `CC1(C)c2ccccc2C(=O)C12CCC(=O)CC2` cannot be ordered by TGI: over 100 µM for the first, over 100 µM for the second.

`CC(=O)c1csc2c1C(=O)c1scc(C(C)=O)c1C2=O` was tested, and the TGI was 3.44 µM.

tested on: SF-295 CNS; assay: inhibition of tumour cell growth, NCI panel, 48 h

Going from `COc1ccc2c(c1)CCc1c-2[nH]c2ccc(OC)cc12` to `COc1cccc(CCn2c(N)c(-c3ccccc3)c3ccc([N+](=O)[O-])cc3c2=O)c1`, the TGI falls from over 100 µM to 22.7 µM.

`C/C(=N\Nc1cc(CN2CCCC2)c(-c2ccc(Cl)cc2)nn1)C(=O)O` and `O=C(O)c1ccc(NNc2cc(=O)[nH]c(=O)[nH]2)cc1` cannot be ordered by TGI: over 100 µM for the first, over 100 µM for the second.

`Cc1cccc(/C=N/NC(=S)NCCc2ccccn2)n1` and `CC1(C)c2ccccc2C(=O)C12CCC(=O)CC2` cannot be ordered by TGI: over 100 µM for the first, over 100 µM for the second.

Work on `CC(=O)c1csc2c1C(=O)c1scc(C(C)=O)c1C2=O` yielded a TGI of 3.09 µM.

tested on: SF-539 CNS; assay: inhibition of tumour cell growth, NCI panel, 48 h

`C/C(=N\Nc1cc(CN2CCCC2)c(-c2ccc(Cl)cc2)nn1)C(=O)O` and `O=C(O)c1ccc(NNc2cc(=O)[nH]c(=O)[nH]2)cc1` cannot be ordered by TGI: over 100 µM for the first, over 100 µM for the second.

Going from `Cc1cccc(/C=N/NC(=S)NCCc2ccccn2)n1` to `COc1cccc(CCn2c(N)c(-c3ccccc3)c3ccc([N+](=O)[O-])cc3c2=O)c1`, the TGI falls from over 73.3 µM to 6.28 µM.

Compared with `CC(=O)c1csc2c1C(=O)c1scc(C(C)=O)c1C2=O`, `CC1(C)c2ccccc2C(=O)C12CCC(=O)CC2` is higher in TGI: 3.28 µM for the first, over 100 µM for the second.

tested on: SK-MEL-2 melanoma; assay: inhibition of tumour cell growth, NCI panel, 48 h

`COc1ccc2c(c1)CCc1c-2[nH]c2ccc(OC)cc12` and `O=C(O)c1ccc(NNc2cc(=O)[nH]c(=O)[nH]2)cc1` cannot be ordered by TGI: over 100 µM for the first, over 100 µM for the second.

`C/C(=N\Nc1cc(CN2CCCC2)c(-c2ccc(Cl)cc2)nn1)C(=O)O` and `Cc1cccc(/C=N/NC(=S)NCCc2ccccn2)n1` cannot be ordered by TGI: over 100 µM for the first, over 100 µM for the second.
